Patent US4311645A, “Synthesis of SRS-active compounds” (Hoffmann-La Roche Inc., priority 1980, dated 1982)
Structures can show the parent of a compound that is named as a salt. Where two headings read alike, the source gives them in different places. Values belong to the compound of their own block, whether it stands above or below them.

Columns and labels:
Compound E = assay: Inhibition of contraction of guinea pig ileum induced by Compound E; format: cell-based; settings: Cavia porcellus
natural SRS-A = assay: Inhibition of contraction of guinea pig ileum induced by natural SRS-A; format: cell-based; settings: Cavia porcellus; read-out: IC50 against natural SRS-A
Method: (§1) SRS-A was assayed utilizing the procedure described by Orange and Austen, J. Immunol. 10, 105 (1969) as follows: a 1.5 cm segment of ileum was removed from male guinea pigs weighing from 250 to 300 grams. The segment of ileum was suspended in a 10 ml organ bath containing Tyrodes solution. The ileum was attached to a strain gauge transducer and contractions were recorded on a strip chart recorder. The bath contained 10^-6 M atropine sulfate to block contractions which might be caused by acetylcholine and 10^-6 M pyrilamine maleate to block histamine-induced contractions. The bath was maintained at 37° C. and gassed with a mixture of 95% O2 and 5% CO2. The concentration of SRS-A in the filtrate obtained by challenging lung tissue with egg albumin was determined by comparing the contraction solicited by a given volume of the filtrate with the contraction elicited by […] of histamine (in the absence of pyrilamine maleate). One unit of SRS-A is equivalent to that quantity which will give the same contraction as this amount of histamine. […] After standardization, this SRS-A was stored in small aliquots at -80° C. for further use. […]
(§2) The assay was carried out as described in Example 23. […] The difference in the level of the contraction obtained in the absence and presence of varying concentrations of Compound I was determined. […]

Compound B = assay: Inhibition of contraction of guinea pig ileum induced by Compound B; format: cell-based; settings: Compound B at its EC50, n=1, extrapolated from graph
Method: as §1, §2

guinea pig ileum = assay: SRS-A activity: contraction of isolated guinea pig ileum (bioassay); format: cell-based; settings: read-out: EC50 (concentration giving 50% of the maximal contraction of the ileum produced by natural SRS-A), 37° C, atropine sulfate 10^-6 M and pyrilamine maleate 10^-6 M in bath, average ± S.E., n = 2-5 ileums
Method: SRS-A was assayed utilizing the procedure described by Orange and Austen, J. Immunol. […] The segment of ileum was suspended in a 10 ml organ bath containing Tyrodes solution. The ileum was attached to a strain gauge transducer and contractions were recorded on a strip chart recorder. The bath contained 10^-6 M atropine sulfate to block contractions which might be caused by acetylcholine and 10^-6 M pyrilamine maleate to block histamine-induced contractions. The bath was maintained at 37° C. and gassed with a mixture of 95% O2 and 5% CO2. The concentration of SRS-A in the filtrate obtained by challenging lung tissue with egg albumin was determined by comparing the contraction solicited by a given volume of the filtrate with the contraction elicited by […] of histamine (in the absence of pyrilamine maleate). One unit of SRS-A is equivalent to that quantity which will give the same contraction as this amount of histamine. […] After standardization, this SRS-A was stored in small aliquots at -80° C. for further use.

[1] = background, literature; cited from earlier work

- IC50 (Compound E; Example 26, SRS-A active compound used: Compound E, n=1, read-out: IC50 (antagonist against synthetic Compound E)): 10000 nM
Compound: CCCCCC#CCC#C/C=C/C=C/[C@H]1O[C@@H]1CCCC(=O)OC (relative stereo) [(R,S) (All E)-3-(1,3-tetradecadien-5,8-diynyl)-trans-oxiranebutanoic acid methyl ester]

- EC50 (guinea pig ileum; Cavia porcellus): 1100 nM
Compound: CCCCCC#CCC#C/C=C/C=C/[C@@H](SC[C@H](N)C(=O)O)[C@@H](O)CCCC(=O)O [D, (5S,6R) (E,E)-S-(5-hydroxy-1-hydroxy-1-oxoeicosa-7,9-dien-11,14-diyn-6-yl)-L-cysteine mono ammonium salt]

Second part, the compound before the results:

Compound: CCCc1c(OCC(O)COc2ccc3c(=O)cc(C(=O)O)oc3c2CCC)ccc(C(C)=O)c1O (centres unmarked) [Compound I, 7-[3-(4-acetyl-3-hydroxy-2-propylphenoxy)-2-hydroxypropoxy]-4-oxo-8-propyl-4H-benzopyran-2-carboxylic acid]
- IC50 (natural SRS-A): 37 nM
- IC50 (Compound B; Cavia porcellus, read-out: IC50 against Compound B, 3 min preincubation): 35 nM
- IC50 (Compound B; read-out: IC50 against Compound B, 3 min preincubation): 40 nM
- IC50 (Compound E; read-out: IC50 against Compound E): 40 nM

Compound: CCCCCC=CCC=CC=CC=CC(SCC(N)C(=O)O)C(O)CCCC(=O)O (centres unmarked) [compound obtained by Samuelsson]
- SRS-A activity [1]: found to have SRS-A activity

Compound: (5R,6S) (E,E,Z,Z)-S-(5-hydroxy-1-methoxy-1-oxoeicosa-7,9,11,14-tetraen-6-yl)-L-cysteine mono ammonium salt
- EC50 (guinea pig ileum): 28 nM
